Here are results for 16 compounds from patent US12568969B2, “Pyridine compounds for controlling invertebrate pests” (FMC Corporation, priority 2020, dated 2026).

For orientation: mortality means the percentage killed.

Format in all cases: in vivo
The subject of experiment [1] is diamondback moth (Plutella xylostella (L.)). Put plainly: Test A: control of diamondback moth on mustard plant, spray. Particulars: sprayed at 250 ppm; assessed after 6 days. The method, then:
(§1) Test compounds were formulated using a solution containing 10% acetone, […] and 300 ppm Activator 909 non-ionic surfactant (Loveland Products, Loveland, Colorado, USA). The formulated compounds were applied in 1 mL of liquid through an atomizer nozzle positioned 1.27 cm (0.5 inches) above the top of each test unit. Test compounds were sprayed at the rates indicated, and each test was replicated three times.
For evaluating control of diamondback moth (Plutella xylostella (L.)) the test unit consisted of a small open container with a 12-14-day-old mustard plant inside. This was pre-infested with ˜50 neonate larvae that were dispensed into the test unit via corn cob grits using an inoculator. The larvae moved onto the test plant after being dispensed into the test unit.
Test compounds were formulated and sprayed at 250 ppm. After spraying of the formulated test compound, each test unit was allowed to dry for 1 hour and then a black, screened cap was placed on top. The test units were held for 6 days in a growth chamber at 25° C. and 70% relative humidity. Plant feeding damage was then visually assessed based on foliage consumed, and larvae were assessed for mortality.

Experiment [2] relates to cotton melon aphid (Aphis gossypii (Glover)). Nature of the experiment: whole plant or invertebrate. Particulars: Aphis gossypii, 144 h, 6 days; for mortality at 50 ppm: sprayed at 50 ppm; for mortality at 250 ppm: sprayed at 250 ppm. As for the experimental part:
as §1
[…] This was pre-infested with 30-40 insects on a piece of leaf according to the cut-leaf method, and the soil of the test unit was covered with a layer of sand.
Test compounds were formulated and sprayed at 250 and/or 50 ppm. After spraying, the test units were maintained in a growth chamber for 6 days at 19° C. and 70% relative humidity. Each test unit was then visually assessed for insect mortality.

For experiment [3], the system named is corn planthopper (Peregrinus maidis (Ashmead)). Put plainly: whole plant or invertebrate. Particulars: Peregrinus maidis, 144 h, 6 days; for mortality at 10 ppm: sprayed at 10 ppm; for mortality at 50 ppm: sprayed at 50 ppm. The method, then:
as §1
For evaluating control of corn planthopper (Peregrinus maidis (Ashmead)) through contact and/or systemic means, the test unit consisted of a small open container with a 3-4-day-old corn (maize) plant inside. White sand was added to the top of the soil prior to application of the test compound.
Test compounds were formulated and sprayed at 250 and/or 50 ppm and/or 10 ppm. After spraying of the formulated test compound, the test units were allowed to dry for 1 h before they were post-infested with ˜15-20 nymphs (18-to-21-day-old). A black, screened cap was placed on the top of each test unit, and the test units were held for 6 days in a growth chamber at 22-24° C. and 50-70% relative humidity. Each test unit was then visually assessed for insect mortality.

The structures appear in SMILES notation.

Turning to `FC(c1ccc(OC(F)(F)F)cc1)c1c(C2CC2)cncc1-n1nccn1` (racemic) [Compound 53], the “control efficacy (40% or less feeding damage and/or 100% mortality)” value in experiment [1] is “very good to excellent levels of control efficacy”.
Same read-out and setting: for `Cc1noc(-c2cncc(Cl)c2C(F)c2ccc(SC(F)(F)F)cc2)n1` (racemic) [Compound 103] the value was “very good to excellent levels of control efficacy”.
Regarding `Fc1cncc(-c2cccs2)c1C(F)c1ccc(OC(F)(F)F)cc1` (stereo not drawn) [Compound 45], the “control efficacy (40% or less feeding damage and/or 100% mortality)” value in experiment [1] is “very good to excellent levels of control efficacy”. Besides, in experiment [2], the mortality at 50 ppm is no less than 80% and the mortality at 250 ppm was no less than 80%. In experiment [3], this compound yielded a mortality at 10 ppm of no less than 80% and a mortality at 50 ppm of no less than 80%.
Turning to `FC(c1ccc(OC(F)(F)F)cc1)c1c(Cl)cncc1-c1ncco1` (stereo not drawn) [Compound 51], in experiment [1], the “control efficacy (40% or less feeding damage and/or 100% mortality)” value was “very good to excellent levels of control efficacy”. In experiment [2], this compound returned a mortality at 50 ppm of no less than 80% and a mortality at 250 ppm of no less than 80%. In addition, in experiment [3], the mortality at 10 ppm is no less than 80% and the mortality at 50 ppm is no less than 80%.
`CCn1nccc1-c1cncc(F)c1C(F)c1ccc(OC(F)(F)F)cc1` (stereo not drawn) [Compound 55]: the “control efficacy (40% or less feeding damage and/or 100% mortality)” value in experiment [1] is given as “very good to excellent levels of control efficacy”. Further, the mortality at 50 ppm in experiment [3] was no less than 80%.
Consider `Cn1ccc(-c2cncc(F)c2C(F)c2ccc(OC(F)(F)F)cc2)n1` (stereo not drawn) [Compound 59], for which, in experiment [1], the “control efficacy (40% or less feeding damage and/or 100% mortality)” value was “very good to excellent levels of control efficacy”. Besides, the mortality at 250 ppm in experiment [2] is no less than 80%.
Taken in the same sequence, the figures for `FC(c1ccc(OC(F)(F)F)cc1)c1c(Cl)cncc1-c1cnco1` (stereo not drawn) [Compound 60] were “very good to excellent levels of control efficacy” and no less than 80%.
As for `Fc1cncc(-c2cnco2)c1C(F)c1ccc(SC(F)(F)F)cc1` (stereo not drawn) [Compound 100], in experiment [1], the “control efficacy (40% or less feeding damage and/or 100% mortality)” value is “very good to excellent levels of control efficacy”. In experiment [2], this compound returned a mortality at 50 ppm of no less than 80% and a mortality at 250 ppm of no less than 80%.
As for `FC(c1ccc(SC(F)(F)F)cc1)c1c(Cl)cncc1-c1cnco1` (stereo not drawn) [Compound 105], the “control efficacy (40% or less feeding damage and/or 100% mortality)” value in experiment [1] was “very good to excellent levels of control efficacy”. For the same compound, the mortality at 50 ppm in experiment [2] and in experiment [3] was no less than 80% throughout. The mortality at 250 ppm in experiment [2] and in experiment [3] (sprayed at 250 ppm) was no less than 80% each time.
For `FC(c1ccc2c(c1)OC(F)(F)O2)c1c(Br)cncc1-n1nccn1` (stereo not drawn) [Compound 147], in experiment [1], the “control efficacy (40% or less feeding damage and/or 100% mortality)” value is on record as “very good to excellent levels of control efficacy”.
On the same count and under the same terms, for `COC(c1ccc2c(c1)OC(F)(F)O2)c1c(F)cncc1-n1cccn1` (stereo not drawn) [Compound 155] the value was “very good to excellent levels of control efficacy”.
On the same count and under the same terms, for `Fc1cncc(-n2cccn2)c1C(F)c1cnc(C(F)(F)F)nc1` (stereo not drawn) [Compound 162] the value was “very good to excellent levels of control efficacy”.
Still for that read-out and setting: for `Fc1cncc(-n2nccn2)c1C(F)c1ccc(Br)nc1` (stereo not drawn) [Compound 166] the value was “very good to excellent levels of control efficacy”; for `Fc1cncc(-n2cccn2)c1C(F)c1ccc(C(F)(F)F)cn1` (stereo not drawn) [Compound 171], “very good to excellent levels of control efficacy”; for `Fc1cncc(-n2nccn2)c1C(F)c1ccc(C(F)(F)F)cn1` (stereo not drawn) [Compound 172], “very good to excellent levels of control efficacy”.
Consider `COC(c1ccc(OC(F)(F)F)cc1)c1ncncc1-n1nccn1` (stereo not drawn) [Compound 175], for which the “control efficacy (40% or less feeding damage and/or 100% mortality)” value in experiment [1] is reported as “very good to excellent levels of control efficacy”.
